Results from patent publication US7534897B2 (Shionogi & Co., Ltd., priority 2002, dated 2009).

Assays:
[1] = target: T1, CRTH2 (Homo sapiens, UniProt Q9Y5Y4); test: Binding activity to CRTH2 ([3H]PGD2 binding assay); conditions: membrane fraction of CRTH2-transfected K562 cells, read-out: CRTH2 inhibitory activity IC50
T1 construct: expressed in transfected cells; host or cells: K562 cells (membrane fraction)
T1 sequence (Q9Y5Y4 1-395): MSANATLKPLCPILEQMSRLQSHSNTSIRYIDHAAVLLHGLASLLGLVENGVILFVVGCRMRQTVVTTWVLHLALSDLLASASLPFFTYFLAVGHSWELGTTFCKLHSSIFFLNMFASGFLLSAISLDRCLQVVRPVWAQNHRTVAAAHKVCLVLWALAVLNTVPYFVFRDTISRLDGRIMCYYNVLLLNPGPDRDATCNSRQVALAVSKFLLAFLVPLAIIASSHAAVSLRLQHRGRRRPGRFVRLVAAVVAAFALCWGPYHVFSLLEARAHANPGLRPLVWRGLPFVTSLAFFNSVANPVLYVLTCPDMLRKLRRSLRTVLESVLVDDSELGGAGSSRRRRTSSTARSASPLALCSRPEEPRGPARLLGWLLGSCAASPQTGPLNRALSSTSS
Procedure: Experiment 1 Binding Activity to CRTH2
The membrane fraction prepared with CRTH2-transfected K562 cells was used for a binding assay. To a binding-reaction solution (50 mM Tris/HCl, pH 7.4, 10 mM MgCl2) the membrane fraction (0.06 mg) and 3 nM [^3H]PGD2 (172 Ci/mmol) were added, and the mixture was reacted at room temperature for 60 min. After the reaction, the mixture was filtered through a glass fiber filter paper and washed several times with cooled physiological saline, then the radioactivity retained on the filter paper was measured. The specific-binding ratio was calculated by subtracting the non-specific binding ratio which is the radioactivity similarly measured in the presence of 10 μM PGD2 from the total binding.

[2] = target: T2, human CRTH2-transfected K562 cells (Homo sapiens, UniProt Q9Y5Y4); test: Antagonistic activity to CRTH2: calcium mobilization assay induced by PGD2; format: cell-based; conditions: compound at 1 μM, percent inhibition of PGD2-induced calcium mobilization
T2 construct: expressed in transfected cells; host or cells: K562 cells
T2 sequence (Q9Y5Y4 1-395): T1 sequence (Q9Y5Y4 1-395)
Procedure: Experiment 2 Evaluation of Antagonistic Activity to CRTH2
To evaluate the antagonistic activity of compounds against CRTH2, calcium mobilization assay induced by PGD2 was performed using CRTH2 transfectants.
The human CRTH2-transfected K562 cells were suspended at 2×10^6 cells/ml in assay buffer (10 mM HEPES buffer, pH 7.4, 0.1% Bovine serum albumin), and were incubated with Fura-2 AM (2 μM) for 60 min at room temperature. After washing cells were resuspended again with assay buffer, incubated at 37° C., and then treated with various concentrations of compounds for 2 min. The emitted fluorescence was measured on a calcium analyzer (CAF-110) after addition of PGD2.

Compound	IC50 [1]	melting point	antagonistic activity to CRTH2 (% INH) [2]
Cc1c(CCNS(=O)(=O)c2ccc(F)cc2)c2ccccc2n1CC(=O)O [Ia-20]	22 nM	–	–
O=C(O)Cn1cc(C2CCC(NS(=O)(=O)c3ccc(F)cc3)C2)c2ccccc21 (stereo not drawn) [Ij-1]	26 nM	–	–
O=C(O)Cn1c2c(c3ccccc31)CC(NS(=O)(=O)c1ccsc1)CC2 (stereo not drawn) [Ib-21]	12 nM	–	–
O=C(O)Cn1cc(CCNS(=O)(=O)c2ccc(-c3ccc(F)cc3)cc2)c2ccccc21 [Ia-15]	37 nM	–	–
CS(=O)(=O)NC(=O)Cn1cc(CCN(Cc2ccccc2)S(=O)(=O)c2ccc(F)cc2)c2ccccc21 [Ia-52]	24 nM	–	–
CN(C1Cc2c(n(CC(=O)O)c3ccccc23)C1)S(=O)(=O)c1ccc(F)cc1 (stereo not drawn) [Ib-6]	55 nM	–	–
COc1ccc2c(c1)c(CCN(Cc1ccccc1)S(=O)(=O)c1ccc(F)cc1)cn2CC(=O)O [Ia-57]	57 nM	–	–
O=C(O)Cn1cc(C2=CCCN(S(=O)(=O)c3ccc(F)cc3)C2)c2ccccc21 [Ic-2]	21 nM	142 to 143 °C	–
O=C(O)Cn1c2c(c3ccccc31)CC(NS(=O)(=O)c1ccc(F)cc1)CC2 (single isomer, unassigned; (+)) [(+)-Ib-16]	5.9 nM	–	–
O=C(O)Cn1cc(CCN(Cc2ccccc2)S(=O)(=O)c2ccc(F)cc2)c2cc(F)ccc21 [Ia-59]	23 nM	–	–
CC(C)N(CCc1cn(CC(=O)O)c2ccccc12)S(=O)(=O)c1ccc(F)cc1 [Ia-48]	57 nM	–	–
CCc1c(C)n(CC(=O)O)c2ccc(N(C)S(=O)(=O)c3ccc(F)cc3)cc12 [Ik-5]	19 nM	161 to 167 °C	–
O=C(O)Cn1c2ccccc2c2cc(N(Cc3ccccc3)S(=O)(=O)c3ccc(F)cc3)ccc21 [Ie-8]	26 nM	212 to 213 °C	–
O=C(O)Cn1cc(C2CCN(S(=O)(=O)c3ccc(F)cc3)C2)c2ccccc21 (stereo not drawn) [Ic-14]	5.5 nM	155 to 156 °C	–
O=C(O)Cn1cc(C2CCCN(S(=O)(=O)c3ccc(F)cc3)C2)c2ccccc21 (stereo not drawn) [Ic-6]	4.5 nM	189 to 194 °C (dec.)	100 % INH
O=C(O)Cn1cc(CCNS(=O)(=O)c2ccc(F)cc2)c2cc(F)ccc21 [Ia-36]	15 nM	–	89 % INH
Cc1c(C)n(CC(=O)O)c2ccc(N(C)S(=O)(=O)c3ccc(F)cc3)cc12 [Ik-1]	48 nM	165 to 179 °C	–
O=C(O)Cn1cc(CCN(Cc2ccccc2)S(=O)(=O)c2ccc(F)cc2)c2cc(Cl)ccc21 [Ia-58]	33 nM	–	–
COc1ccc(S(=O)(=O)N(C)c2ccc3c(c2)c2c(n3CC(=O)O)CCCCC2)cc1 [Ig-14]	8.3 nM	144 to 150 °C	–
CCN(c1ccc2c(c1)c1c(n2CC(=O)O)CCCCC1)S(=O)(=O)c1ccc(F)cc1 [Ig-15]	7.5 nM	–	–

Compound	IC50 [1]	melting point	antagonistic activity to CRTH2 (% INH) [2]
CN(CCc1cn(CC(=O)O)c2ccc(Cl)cc12)S(=O)(=O)c1ccc(F)cc1 [Ia-44]	23 nM	–	–
Cc1ccc(S(=O)(=O)NC2CCc3c(c4ccccc4n3CC(=O)O)C2)cc1 (single isomer, unassigned; (+)) [(+)-Ib-18]	13 nM	–	–
CN(c1ccc2c(c1)c1c(n2CC(=O)O)CCCCC1)S(=O)(=O)c1ccc(O)cc1 [Ig-16]	3.6 nM	186 to 189 °C	–
Cc1c(C(C)(C)CNS(=O)(=O)c2ccc(F)cc2)c2ccccc2n1CC(=O)O [If-1]	19 nM	–	–
CCc1c(C)n(CC(=O)O)c2ccc(NS(=O)(=O)c3ccc(F)cc3)cc12 [Ik-3]	51 nM	172 to 178 °C	–
CN(c1ccc2c(c1)c1c(n2CC(=O)O)CCCC1=O)S(=O)(=O)c1ccc(F)cc1 [Ig-4]	7.8 nM	218 to 220 °C	–
Cc1cc2cc(N(C)S(=O)(=O)c3ccc(F)cc3)ccc2n1CC(=O)O [Ik-2]	86 nM	206 to 208 °C (dec.)	–
O=C(O)Cn1c2c(c3cc(NS(=O)(=O)c4ccc(F)cc4)ccc31)CCCCC2 [Ig-11]	10 nM	209 to 211 °C	–
CN(C1CCc2c(c3ccccc3n2CC(=O)O)C1)S(=O)(=O)c1ccsc1 (stereo not drawn) [Ib-30]	5.3 nM	175 to 180 °C	–
CN(c1ccc2c(c1)c1c(n2CC(=O)O)CCSC1)S(=O)(=O)c1ccc(F)cc1 [Ig-3]	9.7 nM	214 to 217 °C	–
CN(C1CCC(c2cn(CC(=O)O)c3ccccc23)C1)S(=O)(=O)c1ccc(F)cc1 (stereo not drawn) [Ij-2]	53 nM	–	–
Cc1c(CCN(C)S(=O)(=O)c2ccc(F)cc2)c2ccccc2n1CC(=O)O [Ia-41]	34 nM	–	–
O=C(O)Cn1cc(CCN(Cc2ccc([N+](=O)[O-])cc2)S(=O)(=O)c2ccc(F)cc2)c2ccccc21 [Ia-63]	54 nM	–	–
COc1ccc(CN(CCc2cn(CC(=O)O)c3ccccc23)S(=O)(=O)c2ccc(F)cc2)cc1 [Ia-62]	49 nM	108 to 110 °C	–
CC1CCc2c(c3cc(N(C)S(=O)(=O)c4ccc(F)cc4)ccc3n2CC(=O)O)C1 (stereo not drawn) [Ih-5]	23 nM	100 to 101 °C	–
CN(c1ccc2c(c1)c1c(n2CC(=O)O)CCCC1)S(=O)(=O)c1ccc(F)cc1 [Ih-2]	–	–	91 % INH
O=C(O)Cn1cc(C2CCC(N(Cc3ccccc3)S(=O)(=O)c3ccc(F)cc3)C2)c2ccccc21 (stereo not drawn) [Ij-3]	53 nM	–	–
Cc1ccc(S(=O)(=O)N(C)C2CCc3c(c4ccccc4n3CC(=O)O)C2)cc1 (single isomer, unassigned; (+)) [(+)-Ib-27]	6.2 nM	–	–
O=C(O)Cn1c2ccccc2c2cc(NS(=O)(=O)c3ccc(F)cc3)ccc21 [Ie-2]	39 nM	139 to 141 °C	–
CN(CCc1cn(CC(=O)O)c2ccccc12)S(=O)(=O)c1ccc(F)cc1 [Ia-39]	45 nM	–	–

Compound	IC50 [1]	melting point	antagonistic activity to CRTH2 (% INH) [2]
O=C(O)Cn1cc(CCN(Cc2ccccc2)S(=O)(=O)c2ccc(F)cc2)c2ccccc21 [Ia-51]	20 nM	–	91 % INH
O=C(O)Cn1c2c(c3cc(NS(=O)(=O)c4ccc(F)cc4)ccc31)CCCCCC2 [Ig-18]	19 nM	193 to 197 °C	–
Cc1ccccc1CN(CCc1cn(CC(=O)O)c2ccccc12)S(=O)(=O)c1ccc(F)cc1 [Ia-61]	45 nM	–	–
Cc1c(C(C)CNS(=O)(=O)c2ccc(F)cc2)c2ccccc2n1CC(=O)O (stereo not drawn) [If-4]	16 nM	–	–
O=C(O)Cn1cc(CCN(Cc2cccs2)S(=O)(=O)c2ccc(F)cc2)c2ccccc21 [Ia-65]	27 nM	–	–
O=C(O)Cn1cc(CCNS(=O)(=O)c2ccc(F)cc2)c2cc(Cl)ccc21 [Ia-32]	18 nM	–	–
CN(CCc1cn(CC(=O)O)c2ccc(F)cc12)S(=O)(=O)c1ccc(F)cc1 [Ia-45]	19 nM	–	–
O=C(O)Cn1cc(C(CNS(=O)(=O)c2ccc(F)cc2)c2ccccc2)c2ccccc21 (stereo not drawn) [If-9]	12 nM	117 to 120 °C	–
O=C(O)Cn1cc(CCN(CCc2ccccc2)S(=O)(=O)c2ccc(F)cc2)c2ccccc21 [Ia-66]	37 nM	–	–
C=CCN(CCc1cn(CC(=O)O)c2ccccc12)S(=O)(=O)c1ccc(F)cc1 [Ia-47]	51 nM	–	–
Cc1c(CCN(Cc2ccccc2)S(=O)(=O)c2ccc(F)cc2)c2ccccc2n1CC(=O)O [Ia-55]	42 nM	–	–
O=C(O)Cn1c2c(c3cc(N(Cc4ccccc4)S(=O)(=O)c4ccc(F)cc4)ccc31)CCCC2 [Ih-3]	33 nM	198 to 202 °C	–
CN(c1ccc2c(c1)c1ccccc1n2CC(=O)O)S(=O)(=O)c1ccc(F)cc1 [Ie-5]	18 nM	188 to 191 °C	–
Cc1c(C(C)C)c2cc(NS(=O)(=O)c3ccc(F)cc3)ccc2n1CC(=O)O [Ik-4]	47 nM	165 to 171 °C	–
O=C(O)Cn1c2c(c3ccccc31)CC(NS(=O)(=O)c1cccs1)CC2 (single isomer, unassigned; (+)) [(+)-Ib-20]	7.9 nM	–	–
O=C(O)Cn1cc(CCCN(Cc2ccccc2)S(=O)(=O)c2ccc(F)cc2)c2ccccc21 [Ia-85]	80 nM	–	–
CN(C1CCc2c(c3ccccc3n2CC(=O)O)C1)S(=O)(=O)c1ccc(Cc2ccccc2)s1 (stereo not drawn) [Ib-31]	59 nM	138 to 140 °C	96 % INH
CC1CCc2c(c3cc(N(Cc4ccccc4)S(=O)(=O)c4ccc(F)cc4)ccc3n2CC(=O)O)C1 (stereo not drawn) [Ih-6]	34 nM	176 to 178 °C	–
CN(C1CCc2c(c3ccccc3n2CC(=O)O)C1)S(=O)(=O)c1cccs1 (single isomer, unassigned; (+)) [(+)-Ib-29]	4.9 nM	–	–
